Reference: the NIST ThermoML archive (doi:10.1021/je0601457)

Assay: xn = mol fraction of the nth substance listed

Cc1cnccn1 [2-methylpyrazine] + O=C=O
Fluid (supercritical or subcritical phases), Linear displacement technique
Details | mass density [kg/m3]
329.15 K, 13140 kPa, x1 = 0.017 | 626
329.15 K, 14240 kPa, x1 = 0.017 | 652
331.05 K, 10450 kPa, x1 = 0.081 | 785
331.05 K, 10590 kPa, x1 = 0.081 | 785
331.65 K, 6380 kPa, x1 = 0.624 | 896
331.65 K, 9900 kPa, x1 = 0.624 | 901
331.65 K, 13480 kPa, x1 = 0.624 | 904
331.65 K, 18240 kPa, x1 = 0.624 | 910
332.35 K, 11210 kPa, x1 = 0.023 | 375
332.35 K, 12340 kPa, x1 = 0.023 | 438
332.35 K, 13280 kPa, x1 = 0.023 | 470
332.35 K, 15340 kPa, x1 = 0.023 | 519
332.35 K, 16620 kPa, x1 = 0.023 | 540
332.45 K, 12000 kPa, x1 = 0.122 | 863
332.45 K, 13550 kPa, x1 = 0.122 | 881
332.45 K, 15590 kPa, x1 = 0.122 | 901
333.55 K, 11790 kPa, x1 = 0.033 | 617
333.55 K, 12720 kPa, x1 = 0.033 | 679
333.55 K, 13340 kPa, x1 = 0.033 | 719
333.55 K, 15340 kPa, x1 = 0.033 | 780
335.65 K, 9480 kPa, x1 = 0.264 | 822
335.65 K, 10900 kPa, x1 = 0.264 | 829
335.65 K, 14380 kPa, x1 = 0.264 | 842
335.65 K, 17720 kPa, x1 = 0.264 | 852
336.95 K, 12340 kPa, x1 = 0.062 | 716
336.95 K, 13280 kPa, x1 = 0.062 | 743
336.95 K, 14520 kPa, x1 = 0.062 | 775
336.95 K, 16970 kPa, x1 = 0.062 | 820
337.05 K, 3620 kPa, x1 = 0.857 | 892
337.05 K, 5550 kPa, x1 = 0.857 | 893
337.05 K, 9000 kPa, x1 = 0.857 | 897
337.05 K, 13590 kPa, x1 = 0.857 | 901
338.55 K, 12240 kPa, x1 = 0.081 | 752
338.55 K, 13210 kPa, x1 = 0.081 | 765
338.55 K, 14930 kPa, x1 = 0.081 | 774
339.25 K, 10930 kPa, x1 = 0.156 | 847
339.25 K, 13760 kPa, x1 = 0.156 | 869
339.25 K, 17210 kPa, x1 = 0.156 | 884
340.45 K, 11280 kPa, x1 = 0.017 | 346
340.45 K, 11480 kPa, x1 = 0.017 | 371
340.45 K, 11970 kPa, x1 = 0.017 | 408
340.45 K, 12790 kPa, x1 = 0.017 | 455
341.55 K, 14410 kPa, x1 = 0.091 | 782
341.55 K, 15410 kPa, x1 = 0.091 | 801
341.55 K, 17340 kPa, x1 = 0.091 | 828
342.35 K, 11760 kPa, x1 = 0.023 | 283
342.35 K, 11970 kPa, x1 = 0.023 | 291
342.35 K, 12340 kPa, x1 = 0.023 | 300
344.65 K, 12480 kPa, x1 = 0.033 | 482
344.65 K, 13170 kPa, x1 = 0.033 | 529
344.65 K, 13860 kPa, x1 = 0.033 | 578
344.65 K, 14660 kPa, x1 = 0.033 | 620
344.65 K, 15310 kPa, x1 = 0.033 | 649
344.65 K, 16550 kPa, x1 = 0.033 | 683
344.95 K, 11340 kPa, x1 = 0.339 | 920
344.95 K, 18720 kPa, x1 = 0.339 | 941
345.05 K, 10790 kPa, x1 = 0.264 | 808
345.05 K, 12720 kPa, x1 = 0.264 | 818
345.05 K, 15280 kPa, x1 = 0.264 | 828
345.05 K, 19170 kPa, x1 = 0.264 | 842
346.15 K, 14380 kPa, x1 = 0.039 | 582
346.15 K, 15070 kPa, x1 = 0.039 | 617
348.65 K, 7590 kPa, x1 = 0.624 | 879
348.65 K, 11830 kPa, x1 = 0.624 | 884
348.65 K, 16240 kPa, x1 = 0.624 | 890
349.45 K, 14100 kPa, x1 = 0.122 | 787
349.45 K, 15520 kPa, x1 = 0.122 | 810
349.45 K, 16310 kPa, x1 = 0.122 | 824
349.45 K, 18790 kPa, x1 = 0.122 | 852
349.75 K, 14100 kPa, x1 = 0.062 | 691
349.75 K, 15100 kPa, x1 = 0.062 | 722
351.15 K, 13970 kPa, x1 = 0.081 | 778
351.15 K, 14720 kPa, x1 = 0.081 | 780
351.15 K, 16720 kPa, x1 = 0.081 | 783
351.35 K, 3760 kPa, x1 = 0.857 | 878
351.35 K, 7000 kPa, x1 = 0.857 | 882
351.35 K, 11210 kPa, x1 = 0.857 | 888
351.35 K, 17340 kPa, x1 = 0.857 | 893
352.75 K, 14140 kPa, x1 = 0.039 | 495
352.75 K, 14790 kPa, x1 = 0.039 | 525
352.75 K, 15410 kPa, x1 = 0.039 | 543
355.05 K, 11030 kPa, x1 = 0.339 | 918
355.05 K, 14660 kPa, x1 = 0.339 | 927
355.05 K, 17280 kPa, x1 = 0.339 | 939
355.15 K, 13690 kPa, x1 = 0.156 | 808
355.15 K, 14590 kPa, x1 = 0.156 | 821
355.15 K, 16930 kPa, x1 = 0.156 | 843
358.25 K, 15690 kPa, x1 = 0.091 | 696
358.25 K, 16450 kPa, x1 = 0.091 | 714
358.25 K, 17690 kPa, x1 = 0.091 | 743
358.25 K, 19210 kPa, x1 = 0.091 | 767
358.25 K, 20690 kPa, x1 = 0.091 | 787
365.65 K, 17000 kPa, x1 = 0.122 | 746
365.65 K, 18100 kPa, x1 = 0.122 | 769
365.65 K, 19170 kPa, x1 = 0.122 | 786
369.15 K, 15970 kPa, x1 = 0.091 | 633
369.15 K, 16660 kPa, x1 = 0.091 | 659
369.15 K, 17340 kPa, x1 = 0.091 | 681
369.15 K, 18100 kPa, x1 = 0.091 | 701
369.15 K, 19000 kPa, x1 = 0.091 | 721
371.75 K, 4380 kPa, x1 = 0.857 | 861
371.75 K, 8450 kPa, x1 = 0.857 | 865
371.75 K, 15830 kPa, x1 = 0.857 | 875
371.75 K, 28450 kPa, x1 = 0.857 | 889
374.25 K, 14030 kPa, x1 = 0.033 | 346
374.25 K, 14550 kPa, x1 = 0.033 | 367
374.25 K, 15000 kPa, x1 = 0.033 | 384
374.25 K, 16240 kPa, x1 = 0.033 | 425
374.55 K, 17210 kPa, x1 = 0.081 | 740
374.55 K, 19210 kPa, x1 = 0.081 | 768
374.75 K, 16100 kPa, x1 = 0.062 | 592
374.75 K, 16720 kPa, x1 = 0.062 | 626
374.75 K, 16970 kPa, x1 = 0.062 | 639
375.55 K, 16790 kPa, x1 = 0.156 | 765
375.55 K, 18100 kPa, x1 = 0.156 | 789
375.55 K, 19970 kPa, x1 = 0.156 | 811
375.75 K, 17000 kPa, x1 = 0.264 | 758
375.75 K, 20720 kPa, x1 = 0.264 | 778
375.75 K, 24590 kPa, x1 = 0.264 | 797
376.35 K, 14860 kPa, x1 = 0.039 | 367
376.35 K, 15760 kPa, x1 = 0.039 | 406
376.65 K, 7970 kPa, x1 = 0.624 | 846
376.65 K, 10970 kPa, x1 = 0.624 | 852
376.65 K, 14930 kPa, x1 = 0.624 | 859
376.65 K, 19340 kPa, x1 = 0.624 | 864
379.45 K, 17410 kPa, x1 = 0.091 | 598
379.45 K, 20340 kPa, x1 = 0.091 | 675
379.45 K, 21900 kPa, x1 = 0.091 | 705
379.45 K, 24210 kPa, x1 = 0.091 | 731
387.35 K, 15480 kPa, x1 = 0.339 | 899
387.35 K, 18070 kPa, x1 = 0.339 | 912
387.35 K, 22790 kPa, x1 = 0.339 | 933

Liquid, linear displacement
Details | mass density [kg/m3]
331.05 K, x1 = 0.081 | 785
331.65 K, x1 = 0.624 | 892
332.35 K, x1 = 0.023 | 323
332.45 K, x1 = 0.122 | 840
333.55 K, x1 = 0.033 | 574
335.65 K, x1 = 0.264 | 822
336.95 K, x1 = 0.062 | 689
337.05 K, x1 = 0.857 | 888
338.55 K, x1 = 0.081 | 746
339.25 K, x1 = 0.156 | 843
341.55 K, x1 = 0.091 | 731
344.95 K, x1 = 0.339 | 913
345.05 K, x1 = 0.264 | 808
346.15 K, x1 = 0.039 | 462
348.65 K, x1 = 0.624 | 875
349.45 K, x1 = 0.122 | 770
349.75 K, x1 = 0.062 | 660
351.35 K, x1 = 0.857 | 878
355.05 K, x1 = 0.339 | 914
355.15 K, x1 = 0.156 | 799
358.25 K, x1 = 0.091 | 656
365.65 K, x1 = 0.122 | 707
371.75 K, x1 = 0.857 | 858
375.55 K, x1 = 0.156 | 745
375.75 K, x1 = 0.264 | 746
376.65 K, x1 = 0.624 | 845
387.35 K, x1 = 0.339 | 891
